Results on 2 molecules are retold here after US11273145B2, “Compositions and methods for the treatment of acid-related gastrointestinal disorders containing a dithiolane compound and a gastric acid secretion inhibitor” (priority 2014, dated 2022).

The subject of one data set is GERD symptoms. Kind of data set: Example 1: subject diagnosed with GERD, self-reported relief on omeprazole alone vs omeprazole plus ALA. Conditions: scale of 1-10; 40 mg of omeprazole per day. The class given is in vivo, human. The procedure: A middle aged subject diagnosed with GERD had been on the proton pump inhibitor omeprazole for approximately three years. The subject reported taking 40 mg of omeprazole per day to control symptoms of GERD. On a scale of 1-10, subject rated the effectiveness of omeprazole at 5. […] In accordance with the present disclosure, they began taking orally 20 mg of omeprazole and 400 mg of ALA on a daily basis. […] Subject rated effectives of regime of the present disclosure a 9 on a scale from 1-10. […] Additional study was undertaken to see to what extent the combination of proton pump inhibitor and ALA of the present disclosure would have on GERD and heartburn symptoms. The person was instructed to orally take 20 mg of omeprazole and 600 mg of ALA daily for 3 months. […] Other important facts were gathered from this 3-month study. The treatment regime is fast acting and generally will halt the symptoms of even the worst scenario of acid reflux in no more than 120 minutes. Continued relief is experienced for a minimum of 24 hours with no further oral intake of the combination regime. The participant reported eating regular foods with no more modified diet schemes. Foods such as pizza, spaghetti, chili, ice cream, pastrami, taco […] like, all once avoided, are now capable of being enjoyed at meal times.

A further data set concerns heartburn and GERD. Description: Conclusions on the use of the combination regimes. The class given is in vivo, human. The note with it: Omeprazole alone.
Data set [1] addresses T1, Na+-dependent multivitamin transporter (Homo sapiens, UniProt Q9Y289).
T1 sequence (Q9Y289 1-635): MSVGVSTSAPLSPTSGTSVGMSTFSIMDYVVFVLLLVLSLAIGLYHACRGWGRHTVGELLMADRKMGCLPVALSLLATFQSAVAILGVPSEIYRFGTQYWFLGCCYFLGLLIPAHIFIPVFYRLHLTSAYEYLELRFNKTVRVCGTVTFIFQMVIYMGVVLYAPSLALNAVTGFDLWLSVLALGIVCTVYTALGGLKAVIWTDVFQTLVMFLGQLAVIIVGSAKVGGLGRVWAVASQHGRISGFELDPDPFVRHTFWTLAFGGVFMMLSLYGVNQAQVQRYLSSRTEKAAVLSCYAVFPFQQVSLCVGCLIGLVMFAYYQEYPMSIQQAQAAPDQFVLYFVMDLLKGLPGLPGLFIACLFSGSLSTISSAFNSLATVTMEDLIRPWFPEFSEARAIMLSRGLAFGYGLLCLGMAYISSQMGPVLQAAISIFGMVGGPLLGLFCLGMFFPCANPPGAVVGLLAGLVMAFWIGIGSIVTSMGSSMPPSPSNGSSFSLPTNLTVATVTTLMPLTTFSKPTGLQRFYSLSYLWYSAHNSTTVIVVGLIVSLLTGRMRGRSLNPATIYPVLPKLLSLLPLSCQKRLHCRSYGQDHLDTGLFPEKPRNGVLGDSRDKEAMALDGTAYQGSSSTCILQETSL
The note with it: in vitro; cited from earlier work.

Data set [2] deals with intracellular glutathione (GSH). Conditions: variety of cell types and tissues; cited from earlier work.
The subject of another data set is cell monolayer. The note with it: Transwell model; cited from earlier work.

For the molecule `COc1ccc2[nH]c([S+]([O-])Cc3ncc(C)c(OC)c3C)nc2c1` (centres unmarked) [omeprazole], in the data set with GERD symptoms, the “effectiveness rating by subject” value was 5. Moreover, the “time to elimination of GERD symptoms, on the average” value in the data set on heartburn and GERD is listed as 2 days.

In the case of `O=C(O)CCCCC1CCSS1` (stereo not drawn) [ALA, Alpha-Lipoic Acid], the transporter substrate status entry in data set [1] is given as “substrate”. In data set [2], the “effect on intracellular glutathione (GSH)” value is “markedly increases”. Further, the “transport across cell monolayer” value in the data set with cell monolayer is listed as “rapidly traverses the cell monolayer in a pH-dependent manner”.
